Test results: patent publication US10688110B2 (NanGenex Nanotechnology Incorporated, priority 2015, dated 2020)
Like-named read-outs stand apart in the source and are kept apart here.

Key:
PAMPA permeability = type: in vitro ADME; details: pH 7, simulated saliva condition
[1] = cited from earlier work
[2] = healthy subjects, within the clinical dose range; cited from earlier work
[3] = cited from earlier work; remark: listed apart in the source
[4] = single oral dose of radiolabeled drug

Papp (PAMPA permeability): 0.3 ×10⁻⁶ cm/s
Structure (SMILES): Cc1ccc(-c2cc(C(F)(F)F)nn2-c2ccc(S(N)(=O)=O)cc2)cc1 [Celecoxib, 4-[5-(4-methylphenyl)-3-(trifluoromethyl)-1H-pyrazol-1-yl] benzenesulfonamide]
time of peak plasma levels ([1]; after an oral dose): approximately 3 hrs
effective half-life ([1]; fasted conditions): approximately 11 hours
dose proportionality of Cmax and AUC ([1]; fasting conditions, up to 200 mg BID): roughly dose-proportional
overall systemic exposure (AUC), intact capsule vs capsule contents sprinkled on applesauce ([1]; healthy adult volunteers): equivalent
apparent plasma clearance (CL/F) ([1]; human, in vivo): about 500 mL/min
unchanged drug recovered in the urine and feces ([1]; human, in vivo): < 3%
steady-state conditions reached ([1]; multiple dosing): ≤ 5 days
time of peak plasma levels ([1]; single dose of 200 mg of current formulation, oral): 3 h
onset of pain relief ([1]; single dose of 200 mg of current formulation): ≥ 1 h
dose excreted in the feces [1, 4]: approximately 57%
dose excreted into the urine [1, 4]: 27%
protein bound [2]: ~97%
solubility in methanol and chloroform [3]: soluble
solubility in water [3]: insoluble
